Experimental data reported in patent US9233979B2, “Compounds that are ERK inhibitors” (Merck Sharp & Dohme Corp., priority 2012, dated 2016).
Read-outs that look alike come from different tables or passages of the source.

Biological target: phosphorylated active hERK2 enzyme (Homo sapiens (Human), UniProt P28482)
Assay: Active Human ERK2 (hERK2) Activity Assay (IMAP-FP)
Assay type: biochemical
Details: 10 point titration, read-out: AERK2 IC50
Method in brief: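 IMAP fluorescence-polarization kinase assay: 0.5 nM activated hERK2 with 900 nM unlabeled plus 80 nM labeled peptide and 30 μM ATP, reacted 60 min. Quenched with IMAP beads in binding buffer with 24 mM NaCl; FP read after 60 min equilibration.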

[1] = Table 6, 0.5 nM hERK2, 30 μM ATP
[2] = Table 5, 0.5 nM hERK2, 30 μM ATP

phosphorylated active hERK2 enzyme, sequence (P28482 whole entry): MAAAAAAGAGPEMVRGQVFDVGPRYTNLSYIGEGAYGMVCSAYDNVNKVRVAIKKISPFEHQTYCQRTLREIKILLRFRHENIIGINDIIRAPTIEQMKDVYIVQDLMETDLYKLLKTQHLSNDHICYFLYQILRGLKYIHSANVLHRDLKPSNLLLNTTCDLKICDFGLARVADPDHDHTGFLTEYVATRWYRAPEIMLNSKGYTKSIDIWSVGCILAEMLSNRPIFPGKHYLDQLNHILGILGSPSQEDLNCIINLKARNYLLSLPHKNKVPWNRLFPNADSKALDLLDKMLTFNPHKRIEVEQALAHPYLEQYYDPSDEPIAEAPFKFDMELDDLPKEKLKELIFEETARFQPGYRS

SMILES	IC50 [1] [nM]	IC50 [2] [nM]
Nc1n[nH]c2cc(NC(=O)NCc3ccccc3OC(F)F)ncc12 [Example 267, 1-(3-amino-1H-pyrazolo[4,3-c]pyridin-6-yl)-3-[2-(difluoro-methoxy)benzyl]-urea]	5.3	–
COC[C@@H](NC(=O)Nc1cc2[nH]nc(NCC3CC(C(C)(C)O)C3)c2cn1)c1ccccc1 (stereo partly drawn) [Example 183, 1-[3-({[3-(1-hydroxy-1-methylethyl)-cyclobutyl]methyl}amino)-1H-pyrazolo[4,3-c]pyridin-6-yl]-3-[(1S)-2-methoxy-1-phenylethyl]urea]	3.6	–
C[C@@H](NC(=O)Nc1cc2[nH]nc(N)c2c(Cl)n1)c1ccccc1 [Example 444, 1-(3-amino-4-chloro-1H-pyrazolo[4,3-c]-pyridin-6-yl)-3-[(1R)-1-phenylethyl]urea]	1.2	–
CCNc1n[nH]c2cc(NC(=O)N[C@H](C)c3ccccn3)ncc12 [Example 4, 1-[3-(ethylamino)-1H-pyrazolo[4,3-c]pyridin-6-yl]-3-[(1R)-1-pyridin-2-ylethyl]urea]	–	19.5
COCC(C)(C)Nc1n[nH]c2cc(NC(=O)N[C@H](C)c3ccccc3)ncc12 [Example 361, 1-{3-[(2-methoxy-1,1-dimethylethyl)-amino]-1H-pyrazolo[4,3-c]-pyridin-6-yl}-3-[(1R)-1-phenylethyl]urea]	385	–
CCNc1n[nH]c2cc(NC(=O)N[C@H](C)c3ccccc3)ncc12 [Example 2, (R)-1-(3-(Ethylamino)-1H-pyrazolo[4,3-c]pyridin-6-yl)-3-(1-phenylethyl)urea]	–	1.13
C[C@@H](NC(=O)Nc1cc2[nH]nc(N3CCCC3)c2cn1)c1ccccc1 [Example 29, 1-[(1R)-1-phenylethyl]-3-(3-pyrrolidin-1-yl-1H-pyrazolo[4,3-c]pyridin-6-yl)urea]	–	0.82
COC(=O)Nc1n[nH]c2cc(NC(=O)N[C@H](C)c3ccc(Cl)c(O)c3)ncc12 [Example 307, methyl [6-({[(1R)-1-(4-chloro-3-hydroxyphenyl)-ethyl]carbamoyl}-amino)-1H-pyrazolo[4,3-c]-pyridin-3-yl]-carbamate]	1.7	–
Cc1nc(NC(=O)N[C@@H](c2ccccc2)C(C)(C)O)cc2[nH]nc(N3CCOCC3)c12 [Example 107, 1-[(1S)-2-hydroxy-2-methyl-1-phenylpropyl]-3-(4-methyl-3-morpholin-4-yl-1H-pyrazolo[4,3-c]-pyridin-6-yl)urea]	0.3	–
COC[C@@H](NC(=O)Nc1cc2[nH]nc(N3CC4CC3CO4)c2cn1)c1ccccc1 (stereo partly drawn) [Example 451, 1-[(1S)-2-methoxy-1-phenylethyl]-3-[3-(2-oxa-5-azabicyclo[2.2.1]-hept-5-yl)-1H-pyrazolo[4,3-c]-pyridin-6-yl]urea]	3	–
COCCNc1n[nH]c2cc(NC(=O)N[C@H](COC)c3ccccc3)ncc12 [Example 371, 1-{3-[(2-methoxy-ethyl)amino]-1H-pyrazolo[4,3-c]-pyridin-6-yl}-3-[(1S)-2-methoxy-1-phenylethyl]urea]	0.7	–
CC(C)C(=O)Nc1n[nH]c2cc(NC(=O)N[C@H](C)c3ccccc3)ncc12 [Example 163, 2-methyl-N-[6-({[(1R)-1-phenylethyl]-carbamoyl}amino)-1H-pypyrazolo[4,3-c]-pyridin-3-yl]propanamide]	0.6	–
C[C@@H](NC(=O)Nc1cc2[nH]nc(N3CCN(C)CC3)c2cn1)c1ccccc1 [Example 13, 1-[3-(4-methylpiperazin-1-yl)-1H-pyrazolo[4,3-c]pyridin-6-yl]-3-[(1R)-1-phenylethyl]urea]	–	28
CC(NC(=O)Nc1cc2[nH]nc(N)c2cn1)c1ccc(F)c(F)c1 (stereo not drawn) [Example 275, 1-(3-amino-1H-pyrazolo[4,3-c]-pyridin-6-yl)-3-[1-(3,4-difluorophenyl)-ethyl]urea]	4.6	–
COC[C@@H](NC(=O)Nc1cc2[nH]nc(N3CC(O)C3)c2cn1)c1ccccc1 [Example 80, 1-[3-(3-hydroxy-azetidin-1-yl)-1H-pyrazolo[4,3-c]-pyridin-6-yl]-3-[(1S)-2-methoxy-1-phenylethyl]urea]	5.5	–
C[C@@H](NC(=O)Nc1cc2[nH]nc(N[C@@H]3COC[C@H]3F)c2cn1)c1ccccc1 [Example 88, 1-(3-{[(3R,4S)-4-fluorotetrahydrofuran-3-yl]amino}-1H-pyrazolo[4,3-c]-pyridin-6-yl)-3-[(1R)-1-phenylethyl]urea]	3.6	–
COC[C@@H](NC(=O)Nc1cc2[nH]nc(N3CCN(C)CC3)c2cn1)c1ccccc1 [Example 14, 1-[(1S)-2-methoxy-1-phenylethyl]-3-[3-(4-methylpiperazin-1-yl)-1H-pyrazolo[4,3-c]pyridin-6-yl]urea]	–	21.8
CCNc1n[nH]c2cc(NC(=O)NCC(C)c3ccccc3)ncc12 (stereo not drawn) [Example 226, 1-[3-(ethylamino)-1H-pyrazolo[4,3-c]pyridin-6-yl]-3-(2-phenylpropyl)-urea]	17	–
CC(=O)N1CCc2nc(NC(=O)N[C@H](C)c3ccccc3)cc3[nH]nc1c23 [Example 140, (R)-1-(3-acetyl-1,3,4,5-tetrahydropyrazolo[3,4,5-de][1,6]naphthyridin-7-yl)-3-(1-phenylethyl)urea]	111	–
CCS(=O)(=O)Nc1n[nH]c2cc(NC(=O)N[C@H](C)c3ccccc3)ncc12 [Example 50, (R)—N-(6-(3-(1-Phenylethyl)ureido)-1H-pyrazolo[4,3-c]pyridin-3-yl)ethanesulfonamide]	–	321
CO[C@H](C)CNC(=O)Nc1cc2[nH]nc(N3CCOCC3)c2cn1 [Example 16, 1-[(2R)-2-methoxypropyl]-3-(3-morpholin-4-yl-1H-pyrazolo[4,3-c]pyridin-6-yl)urea]	–	20.6
C[C@@H](NC(=O)Nc1cc2[nH]nc3c2c(n1)COC(=O)N3)c1ccccc1 [Example 368, 1-(8-oxo-2,6,8,9-tetrahydro-7-oxa-1,2,5,9-tetraazabenzo[cd]-azulen-4-yl)-3-[(1R)-1-phenylethyl]urea]	1.1	–
Cn1cc2c(n1)CCN(c1n[nH]c3cc(NC(=O)N[C@@H](c4ccc(F)cc4)C(C)(C)O)ncc13)C2 [Example 126, 1-[(1S)-1-(4-fluorophenyl)-2-hydroxy-2-methylpropyl]-3-(2′-methyl-2,′4,′6,′7′-tetrahydro-1H-3,5′-bipyrazolo[4,3-c]pyridin-6-yl)urea]	0.2	–
C[C@@H](NC(=O)Nc1cc2[nH]nc(NC(=O)CC(F)(F)F)c2cn1)c1ccccc1 [Example 199, 3,3,3-trifluoro-N-[6-({[(1R)-1-phenylethyl]-carbamoyl}amino)-1H-pyrazolo[4,3-c]-pyridin-3-yl]-propanamide]	1.1	–
C[C@@H]1CN(c2n[nH]c3cc(NC(=O)N[C@@H](c4ccccc4)C(C)(C)O)ncc23)C[C@H](C(F)(F)F)O1 [Example 103, 1-[(1S)-2-hydroxy-2-methyl-1-phenylpropyl]-3-{3-[(2R,6R)-2-methyl-6-(trifluoromethyl)-morpholin-4-yl]-1H-pyrazolo[4,3-c]-pyridin-6-yl}urea]	1.1	–
CCNc1n[nH]c2cc(NC(=O)N[C@H](C)c3ccc(F)cc3)ncc12 [Example 5, 1-[3-(ethylamino)-1H-pyrazolo[4,3-c]pyridin-6-yl]-3-[(1R)-1-(4-fluorophenyl)ethyl]urea]	–	1
O=C(Nc1cc2[nH]nc(NC(=O)N3CC(F)(F)C3)c2cn1)N[C@H]1c2ccccc2OCC[C@H]1O [Example 396]	0.3	–
